# Assay results taken from patent US12522614B2, “Topical phosphoinositide 3-kinase inhibitors” (VENTHERA, INC., priority 2019, dated 2026).
# “Also recorded” adds a separate entry of the source.
# Legend:
# [1] = In vitro human skin permeation study of topical gel formulations (Franz diffusion cells); assay type: in vitro ADME; details: Study-1, Example 8 gel, human skin
# Description: The gel formulation of Example 8 was used as the donor phase to determine the permeation of Compound 1.002 through human skin and its effectiveness as a topical application. Three skin donors and three diffusion cells (for each donor) per formulation were used in the in vitro skin permeation experiments. Split thickness dermatomed (approximately at […] thickness) human cadaver skin, supplied by New York Firefighters Skin Bank, NY, was used to determine the permeation rate of the tested compound (i.e., the drug) in vitro. All in vitro skin permeation studies were conducted using the Vertical Diffusion Cells assembly with consoles (Model FDC-6), and heating controllers (Logan Instruments Inc. Somerset, NJ). Each assembly consisted of six vertical, jacketed (37° C.±0.5° C.) 12-mL Franz diffusion cells with magnetic stirrer and 1.767 cm^2 diffusion area.
# Skin flux studies were run for a period of 48 hours. At predetermined intervals (2, 4, 8, 24 and 48 hours) after starting the experiment, the entire contents of the receiver compartment were collected for determining concentrations of the drug by HPLC. The receiver compartment was refilled with fresh receiver medium. The receiver medium was pH 7.4 phosphate buffer with 0.5 mg/ml of Oleath 20 with the saturation concentration of the drug in the receptor medium being 0.152 mg/ml. This solubility of the drug in the receiver medium was enough to ensure sink conditions throughout each collection interval.
# Samples of the receptor phase were obtained at 2, 4, 8, 12, 24 and 48 h and concentrations of Compound 1.002 and 3-(4-morpholinothieno(3,2-d)pyrimidin-2-yl)phenol (metabolite of Compound 1.002, abbreviated as MTPP) were determined using a validated HPLC method. The metabolism of Compound 1.002 to MTPP takes place in the human skin by esterase enzymes.
# HPLC method: Column—Gemini C-18 4.6×150 mm, 5 μm particle size; Mobile Phase—water:acetonitrile 25:75 containing 0.1% TFA; Flow Rate—1 mL/min; Detection—274 nm; Column Temperature—40° C.; and Run Time—10 min. The retention times for MTPP and Compound 1.002 were 3.9 and 7.2 minutes, respectively.
# The skin flux of drugs and cumulative amount of drugs permeated (sum of MTPP and Compound 1.002) for a period of 48 hours were calculated and are shown in Table 3. FIG. 3 represents a plot of Cumulative amount permeated versus time.
# [2] = Six-month stability study of topical gel formulations including Compound 1.002; assay type: physicochemical; details: 40° C./75% RH
# Protocol: Unless otherwise indicated, a HPLC method was used to determine the content of Compound 1.002 and impurities; ASTM D 1544 was used as the standard test method for color of gel formulations; a gas chromatographic method was used to determine the content of oleic acid; and Brookfield viscometer was used to measure viscosity (cP) of gel formulations.
# (§1) The gel formulation in HPLC glass vials was subjected to stability study at 40° C./75%0 RH for 6 months. A purity of Compound 1.002 on month 0, 1, 3, and 6 month at 40° C./75% RH was determined by HPLC. The detected impurity of Compound 1.002 appears to be the hydrolysis product, as MTPP. Table 21 represents stability data of Compound 1.002 in the topical formulation having 1000 oleic acid. […]
# as §1, with “Lablabo Amcor Foil 18 mL containers” for “HPLC glass vials”, “C./75%” for “C./75%0”, “3, 4, 5,” for “3,”, “25” for “21”, “10%” for “1000”, “alcohol and 40% DPG.” for “acid.”
# [3] = Table 20 gel (10% oleic acid, DPG), HPLC glass vials, month 0
# [4] = Table 20 gel (10% oleic acid, DPG), HPLC glass vials, month 1
# [5] = Table 20 gel (10% oleic acid, DPG), HPLC glass vials, month 3
# [6] = Table 20 gel (10% oleic acid, DPG), HPLC glass vials, month 6
# [7] = Table 24 gel (10% oleyl alcohol, 40% DPG), Lablabo Amcor Foil 18 mL containers, month 0
# [8] = Table 24 gel (10% oleyl alcohol, 40% DPG), Lablabo Amcor Foil 18 mL containers, month 1
# [9] = Table 24 gel (10% oleyl alcohol, 40% DPG), Lablabo Amcor Foil 18 mL containers, month 3
# [10] = Table 24 gel (10% oleyl alcohol, 40% DPG), Lablabo Amcor Foil 18 mL containers, month 4
# [11] = Table 24 gel (10% oleyl alcohol, 40% DPG), Lablabo Amcor Foil 18 mL containers, month 5
# [12] = Table 24 gel (10% oleyl alcohol, 40% DPG), Lablabo Amcor Foil 18 mL containers, month 6
structure (smiles),measurement,setting,value
"CC(=O)Oc1cccc(-c2nc(N3CCOCC3)c3sccc3n2)c1 [Compound 1.002, 3-(4-Morpholinothieno[3,2-d]pyrimidin-2-yl)phenyl Acetate]",Hydrolysis of Cmpd. 1.002 to MTPP,"[1]; Donor 2, 4 h",100%
same,"Cumulative permeation, Cmpd. 1.002","[1]; Donor 3, 2 h",0.00 μg/cm^2
same,Appearance,[2]; [3],"Clear,; also recorded: no crystals"
same,Compound 1.002 Relative Purity,[2]; [3],100.0%
same,Compound 1.002 content,[2]; [3],106.6 mg/mL
same,MTPP (Relative Purity),[2]; [3],0.0%
same,Other impurity (Relative Purity),[2]; [3],0.0%
same,Viscosity,[2]; [3],"11,800 cP"
same,Appearance,[2]; [4],"Clear,; also recorded: no crystals"
same,Compound 1.002 Relative Purity,[2]; [4],98.4%
same,Compound 1.002 content,[2]; [4],106.0 mg/mL
same,MTPP (Relative Purity),[2]; [4],1.2%
same,Other impurity (Relative Purity),[2]; [4],0.4%
same,Viscosity,[2]; [4],"12,600 cP"
same,Appearance,[2]; [5],"Clear,; also recorded: no crystals"
same,Compound 1.002 Relative Purity,[2]; [5],97.5%
same,Compound 1.002 content,[2]; [5],107.0 mg/mL
same,MTPP (Relative Purity),[2]; [5],2.5%
same,Other impurity (Relative Purity),[2]; [5],0.0%
same,Viscosity,[2]; [5],"11,780 cP"
same,Appearance,[2]; [6],"Clear,; also recorded: no crystals"
same,Compound 1.002 Relative Purity,[2]; [6],95.1%
same,Compound 1.002 content,[2]; [6],109.1 mg/mL
same,MTPP (Relative Purity),[2]; [6],4.9%
same,Other impurity (Relative Purity),[2]; [6],0.0%
same,Viscosity,[2]; [6],"12,760 cP"
same,Compound 1.002 Relative Purity,[2]; [7],100%
same,Compound 1.002 content,[2]; [7],65.9 mg/mL
same,MTPP (Relative Purity),[2]; [7],0.0%
same,Visual Appearance,[2]; [7],no crystals
same,Compound 1.002 Relative Purity,[2]; [8],98.9%
same,Compound 1.002 content,[2]; [8],66.5 mg/mL
same,MTPP (Relative Purity),[2]; [8],1.1%
same,Visual Appearance,[2]; [8],no crystals
same,Compound 1.002 Relative Purity,[2]; [9],99.0%
same,Compound 1.002 content,[2]; [9],65.9 mg/mL
same,MTPP (Relative Purity),[2]; [9],1.0%
same,Visual Appearance,[2]; [9],no crystals
same,Compound 1.002 Relative Purity,[2]; [10],97.0%
same,Compound 1.002 content,[2]; [10],66.5 mg/mL
same,MTPP (Relative Purity),[2]; [10],3.0%
same,Visual Appearance,[2]; [10],no crystals
same,Compound 1.002 Relative Purity,[2]; [11],97.3%
same,Compound 1.002 content,[2]; [11],67.8 mg/mL
same,MTPP (Relative Purity),[2]; [11],2.7%
same,Visual Appearance,[2]; [11],no crystals
same,Compound 1.002 Relative Purity,[2]; [12],90.0%
same,Compound 1.002 content,[2]; [12],51.1 mg/mL
same,MTPP (Relative Purity),[2]; [12],10.0%
same,Visual Appearance,[2]; [12],no crystals
